≈ marks a conversion by molar mass, not a printed value.
What was measured:
[1] = Estimated rotation rate after light activation; settings: for estimated rotation rate after light activation: based on known motors with similar core skeletons
[2] = test system: C. albicans; test: Killing of C. albicans by MM 1 in de-energized, inhibited, uncoupled cells or with scavengers; type: cell-based, Candida albicans; settings: for effect of scavenger on MM-induced killing: MM 1 2×MIC
Protocol: FIG. 8: Survival curves of de-energized versus exponential, fully energized cells of C. albicans treated with visible-light-activated MM 1 (2×MIC). Energy depletion of C. albicans was achieved by resuspending cells in de-energization buffer (1 μM antimycin A, 5 mM 2-deoxy-D-glucose, 50 mM HEPES buffer, pH 7.0) for 3 h, as described for the determination of efflux pump activity in Example 1. Survival curves were generated according to the procedure described in Example 1 for time-kill assays. The dashed line indicates the detection limit of the method. The results are expressed as the average of at least three independent replicates±the standard error of the mean.
FIG. 9: Effect of pre-treatment with drugs targeting different individual components of the electron transport chain (see table inset) on the killing of C. albicans by light-activated MM 1 (2×MIC). Survival curves were generated according to the procedure described in Example 1 for time-kill assays. The dashed line indicates the detection limit of the method. The results are expressed as the average of at least three independent replicates±the standard error of the mean.
FIG. 10: Effect of pre-treatment with the uncoupling agents carbonyl [COMPOUND LEFT OUT] 4-(trifluoromethoxy)phenylhydrazone (FCCP) and carbonyl [COMPOUND LEFT OUT] 3-chlorophenylhydrazone (CCCP) on the killing of C. albicans by light-activated MM 1 (2×MIC). Survival curves were generated according to the procedure described in Example 1 for time-kill assays. The dashed line indicates the detection limit of the method. The results are expressed as the average of at least three independent replicates #the standard error of the mean.
Survival curves were generated according to the procedure described in Example 1 for time-kill assays. The dashed line indicates the detection limit of the method. The results are expressed as the average of at least three independent replicates±the standard error of the mean.
FIGS. 12A-12C show the effect of growth in the presence of different reactive oxygen species (ROS) scavengers and the iron scavenger 2,2′-dipyridyl (DP) on MM 1-induced killing of C. albicans. […] The results are expressed as the average of at least three independent replicates±the standard error of the mean. (FIG. 12B) Growth curves of C. albicans in the presence and absence of the iron scavenger DP, determined by monitoring the absorbance at 630 nm over time in a microplate reader. […] (FIG. 12C) Time profiles of mitochondrial ROS levels in C. albicans grown with and without DP after treatment with visible-light-activated MM 1 (2×MIC), detected with the MitoROS™ 580 fluorescent probe, according to the experimental procedure described in Example 1. […]

[3] = test system: C. albicans; test: MIC, visible-light-activated MMs and conventional antifungals, C. albicans; type: cell-based, Candida albicans (ATCC 18804); settings: Candida albicans, read-out: MIC of antifungal agent
Protocol: C. albicans cell suspensions were incubated with increasing concentrations of MMs and irradiated with 405-nm light at 292 mW cm^−2 for 5 min (87.6 J cm^−2). The minimum inhibitory concentration (MIC) was defined as the MM concentration resulting in no visible fungal growth after irradiation with 87.6 J cm^−2 of 405-nm light.
Cell suspensions for susceptibility testing (MMs and conventional antifungals) were prepared per the Clinical & Laboratory Standards Institute (CLSI) guidelines (CLSI, 2017; CLSI, 2008). Before testing, yeasts (C. albicans and S. cerevisiae) were sub-cultured in Sabouraud Dextrose Agar-Emmons Modification (SDAE) plates and grown for 24 h at 30 °C. Five independent colonies from 24-h-old plates were collected and diluted to ~10^4 colony forming units (CFU) per mL in sterile saline (CLSI, 2017). Molds (A. fumigatus and the dermatophytes T. rubrum and M. gypseum) were sub-cultured on SDAE medium and incubated for 7 days at 28 °C. Conidia were recovered by covering the plates with sterile distilled water and scraping the colonies. The suspensions were filtered (8-μm pore size) and diluted in saline to ~10^4 CFU mL^−1 (Santos and Hamdan, 2005).
After a 30-min incubation in the dark, cell suspensions were transferred to small, sterilized glass beakers, which were then placed in a water bath. Each sample was irradiated with 405-nm light at 292 mW cm^−2 for 5 min, corresponding to a light dose of 87.6 J cm^−2, determined using an S415C thermal power sensor (Thorlabs, Newton, MA, USA). During irradiation, the cell suspensions were agitated with a small metal stirrer. A thermocouple probe (model SC-TT-K-30-36-PP; Omega Engineering, Inc., Stanford, CT, USA) was used to monitor the temperature during irradiation. Irradiated cell suspensions were inoculated in 3-(N-morpholino) propanesulfonic acid (MOPS)-buffered Roswell Park Memorial Institute Medium (RPMI) 1640 (pH 7.0). Tubes were incubated at 30 ° C for 48 h (yeasts) and 28 ° C for 7 days (molds). The antifungal or MM concentration resulting in no visible growth was defined as the minimum inhibitory concentration (MIC) (CLSI, 2017; CLSI, 2008). Similarly prepared cell suspensions were used to determine the MIC of conventional antifungals.

[4] = test system: E. coli; test: MIC, E. coli; type: cell-based, Escherichia coli BW25113; settings: E. coli, broth microdilution; for MIC: Escherichia coli, read-out: Antibiotic MIC
[5] = test system: E. coli; test: Checkerboard interaction with antibiotics (MIC, FIC index), E. coli; type: cell-based, Escherichia coli
Protocol: To evaluate synergy between conventional antibiotics and MM in E. coli, the fractional inhibitory concentration (FIC) index (Hall et al., 1983) was determined using a modified checkerboard microtiter test in an 8-by-8 well configuration. Briefly, E. coli cell suspensions were prepared as described for MIC determination with an increasing concentration (0.1-40 μM) of the different MMs, followed by irradiation for 5 min at 146 mW cm^−2. […] The FIC was calculated after dividing the MIC of each antibiotic in combination with different MM by the MIC of the antibiotic alone. The FIC index, obtained by adding both FICs, was interpreted as indicating a synergistic effect if it was ≤0.5, as additive or indifferent if it was >0.5 and ≤2.0, and as antagonistic if it was >2.0 (Hall et al., 1983).

[6] = test system: A. baumannii; test: MIC, A. baumannii; type: cell-based, Acinetobacter baumannii; settings: Acinetobacter baumannii, read-out: Antibiotic MIC
Protocol: (§1) The appropriate volume of an MM stock at 8 mM necessary to achieve a concentration ranging from 0.3125 to 40 μM was pipetted into a 2 mL microcentrifuge tube to which 1 mL of cell suspension prepared as previously described was added. Corresponding negative controls (DMSO only) were prepared in the same way. The mixture was gently mixed by pipetting and incubated in the dark at 30 or 37 ° C, depending on the strain, for 30 min with agitation (220 rpm). Afterward, MM- or DMSO-treated cells were dispensed in one well of a 24-well plate positioned in the center of the light beam (405 nm LED Light, Prizmatix, UHP—F-5-405) placed at the appropriate distance necessary to achieve the desired light intensity of 304 mW cm-2, 146 mW cm2 or 87 mW cm2, as measured with a handheld digital power meter console coupled to an S415C thermal power sensor head (Thorlabs, Newton, MA, USA). The temperature during irradiation was monitored using a thermocouple probe (Model SC-TT-K-30-36-PP; Omega Engineering, Inc., Stanford, CT, USA). Samples were agitated during irradiation. Dark controls were prepared as previously described except that no irradiation was provided.
(§2) For MIC determination, samples treated with a range of concentrations of the different MM, as described above and were irradiated one at a time for 5 min at 146 mW cm^−2 (43.8 J cm^−2), after which irradiated aliquots were collected and inoculated into 1 mL MHB in a 2 mL microcentrifuge tube. Samples were incubated overnight at 30 or 37 ° C, depending on the strain, without agitation. Corresponding non-irradiated samples and negative controls (without bacteria) were also included. The following day, cultures were inspected for growth and the MIC was identified. The experimental procedure used to determine the MIC of visible light-activated MMs is schematically depicted in FIG. 26.

[7] = test system: P. aeruginosa; test: MIC, P. aeruginosa; type: cell-based, Pseudomonas aeruginosa
Protocol: as §1, §2

[8] = test system: S. aureus; test: MIC, S. aureus; type: cell-based, Staphylococcus aureus; settings: S. aureus, broth microdilution
Protocol: as §1, §2

COc1cc2c(c3ccccc13)/C(=C1\c3ccccc3Sc3ccc(NCCN(C)C)cc31)[C@H](C)C2 (racemic) [DL-5-872]
estimated rotation rate after light activation [1]: 3 MHz

C[C@@H]1Cc2ccc3c(NCCN(C)C)cccc3c2C1=C1c2ccccc2Sc2ccccc21 (racemic) [DL-5-901]
estimated rotation rate after light activation [1]: 3 MHz

C[C@@H]1Cc2ccc3c(N(C)CCN(C)C)cccc3c2C1=C1c2ccccc2Sc2ccccc21 (racemic) [DL-5-902]
estimated rotation rate after light activation [1]: 3 MHz

C[C@@H]1Cc2ccc3c(NCCN)cccc3c2C1=C1c2ccccc2Sc2ccccc21 (racemic) [DL-5-903]
estimated rotation rate after light activation [1]: 3 MHz

c1ccc(-c2ccccn2)nc1 [2,2′-dipyridyl]
effect of scavenger on MM-induced ROS generation [2]: did not impact MM-induced ROS generation | effect of scavenger on MM-induced killing [2]: mitigation of MM-induced killing

Nc1nc(=O)[nH]cc1F [5-Fluorocytosine (5-FC), 5-Fluorocytosine]
MIC [3]: 1 µg/mL

C[C@@H]1CSc2ccc3ccccc3c2/C1=C1\c2ccccc2Sc2cc(NCCN(C)C)ccc21 [ARV-3-202, reference compound]
estimated rotation rate of slow MM [1]: ~ 10^−6 Hz

CC1(C)S[C@@H]2[C@H](NC(=O)[C@H](N)c3ccccc3)C(=O)N2[C@H]1C(=O)O [Ampicillin, reference compound]
MIC [4]: 0.063 µg/mL (≈ 0.18 µM)

O=C(O)c1cn(C2CC2)c2cc(N3CCNCC3)c(F)cc2c1=O [Ciprofloxacin, reference compound]
MIC [4]: 0.008 µg/mL (≈ 0.0241 µM)

OC(Cn1cncn1)(Cn1cncn1)c1ccc(F)cc1F [Fluconazole (FLC), Fluconazole]
MIC [3]: 0.5 µg/mL

CC1(C)CC(NC(=O)C[P+](c2ccccc2)(c2ccccc2)c2ccccc2)CC(C)(C)N1[O] [MitoTEMPO]
effect of scavenger on MM-induced ROS generation [2]: reduced ROS generation | effect of scavenger on MM-induced killing [2]: did not affect survival following MM treatment

CO[C@@H]1[C@@H](OC(N)=O)[C@@H](O)[C@H](Oc2ccc3c(O)c(NC(=O)c4ccc(O)c(CC=C(C)C)c4)c(=O)oc3c2C)OC1(C)C [Novobiocin]
MIC [4]: 64 µg/mL (≈ 104 µM) | potentiation of antibiotic by MM pre-treatment ([5]; E. coli): up to 64 fold | FIC index with MM ([5]; E. coli, MM and novobiocin): ≤ 0.5 | antibiotic MIC after pre-treatment with MM 1 ([5]; E. coli, light-activated MM 1): 0.0075 µg/mL | antibiotic MIC after pre-treatment with MM 5 ([5]; E. coli, light-activated MM 5): 0.0075 µg/mL | antibiotic MIC after pre-treatment with MM 6 ([5]; E. coli, light-activated MM 6): 0.015 µg/mL | MIC ([5]; Escherichia coli, 18 h, read-out: antibiotic MIC alone): 0.48 µg/mL

CN(C)[C@@H]1C(O)=C(C(N)=O)C(=O)[C@@]2(O)C(O)=C3C(=O)c4c(O)cccc4[C@@](C)(O)[C@H]3C[C@@H]12 [Tetracycline, reference compound]
MIC [6]: 8 µg/mL (≈ 18 µM)

COc1cc(Cc2cnc(N)nc2N)cc(OC)c1OC [Trimethoprim, reference compound]
MIC [4]: 1 µg/mL (≈ 3.44 µM) | MIC ([7]; Pseudomonas aeruginosa, read-out: Antibiotic MIC): 128 µg/mL (≈ 441 µM)

Gentamicin [reference compound]
Antibiotic MIC [4]: 1 μg per mL | Antibiotic MIC ([7]; P. aeruginosa, broth microdilution): 1 μg per mL | Antibiotic MIC [8]: 2 μg per mL
